Assay results taken from patent US7714135B2, “Tetrahydropyridothiophenes for the treatment of proliferative diseases such as cancer” (4SC AG, priority 2005, dated 2010).

Key:
[1] = system: RKO (RKOp27) human colon adenocarcinoma cells; assay: Alamar Blue cell viability assay, anti-proliferative/cytotoxic activity on proliferating (uninduced) RKOp27 cells; type: cell-based; settings: RKOp27 subclone without inducer, 72 hours incubation, read-out: IC50 RKO p27 uninduced (proliferating)
Experimental: The anti-proliferative/cytotoxic activity of the compounds described herein, can be tested on subclones of RKO (RKOp27) human colon adenocarcinoma cells (Schmidt et al., Oncogene 19, 2423-2429; 2000) using the Alamar Blue cell viability assay (described in O'Brien et al. Eur J Biochem 267, 5421-5426, 2000). The compounds are dissolved as 20 mM solutions in dimethylsulfoxide (DMSO) and subsequently diluted in semi-logarithmic steps. DMSO dilutions are further diluted 1:100 into Dulbecco's modified Eagle's medium (DMEM) containing 10% fetal calf serum to a final concentration twice as much as the final concentration in the test. RKO subclones are seeded into 96 well flat bottom plates at a density of 4000 cells per well in a volume of 50 μl per well. 24 hours after seeding the 50 μl each of the compound dilutions in DMEM medium are added into each well of the 96 Well plate. Each compound dilution is tested as quadruplicates. Wells containing untreated control cells are filled with 50 μl DMEM medium containing 1% DMSO. The cells are then incubated with the substances for 72 hours at 37° C. in a humidified atmosphere containing 5% carbon dioxide. To determine the viability of the cells, 10 μl of an Alamar Blue solution (Biosource) are added and the fluorescence is measured at an extinction of 544 nm and an emission of 590 nm. For the calculation of the cell viability the emission value from untreated cells is set as 100% viability and the emission rates of treated cells are set in relation to the values of untreated cells. Viabilities are expressed as % values.
The corresponding IC50 values of the compounds for anti-proliferative/cytotoxic activity are determined from the concentration-effect curves.
Representative IC50 values for anti-proliferation/cytotoxicity determined in the mentioned assay follow from the following table A, in which the numbers of the compound correspond to the numbers of the examples.

[2] = system: RKO colon adenocarcinoma cells (RKOp27) arrested by the expression of ectopic p27Kip1; assay: Alamar Blue cell viability assay on RKOp27 cells arrested by Ponasterone A-induced p27Kip1 expression (cell cycle specific mode of action); type: cell-based; settings: Homo sapiens, RKOp27 subclone induced with 10 μM Ponasterone A, 72 hours incubation, read-out: IC50 RKO p27 induced (arrested)
Experimental: To determine the cell cycle specific mode of action, subclones of RKO colon adenocarcinoma cells (RKOp27 or RKOp21 as described by Schmidt et al. in Oncogene 19, 2423-2429; 2000) are seeded into 96 well flat bottom plates at a density of 16000 cells per well in a volume of 50 μl per well in DMEM growth medium with 10% FCS containing 10 μM Ponasterone A. 24 hours after seeding the 50 μl each of the compound dilutions in DMEM medium are added into each well of the 96 Well plate. Each compound dilution is tested as quadruplicates. Wells containing untreated control cells are filled with 50 μl DMEM medium containing 1% DMSO. The cells are then incubated with the substances for 72 hours at 37° C. in a humidified atmosphere containing 5% carbon dioxide. To determine the viability of the cells, 10 μl of an Alamar Blue solution (Biosource) are added and the fluorescence was measured at an extinction of 544 nm and an emission of 590 nm. For the calculation of the cell viability the emission value from untreated cells is set as 100% viability and the emission rates of treated cells are set in relation to the values of untreated cells. Viabilities are expressed as % values. Viability is compared of proliferating cells grown in the absence of the inducer Ponasterone A, versus viability of cells arrested by the expression of ectopic p27Kip1 induced by Ponasterone A.

SMILES	IC50 [1] [nM]	IC50 [2] [nM]
CCOC(=O)N1CCc2c(sc(NC(=O)CC(C)c3ccccc3)c2C#N)C1 (racemic) [Example 4, 3-Cyano-2-((RS)-3-phenyl-butanoylamino)-4,7-dihydro-5H-thieno[2,3-c]pyridine-6-carboxylic acid ethyl ester]	≤ 300	> 100000
CCOC(=O)N1CCc2c(sc(NC(=O)CC(C)c3cccnc3)c2C#N)C1 (racemic) [Example 49, 3-Cyano-2-((RS)-3-pyridin-3-yl-butanoylamino)-4,7-dihydro-5H-thieno[2,3-c]pyridine-6-carboxylic acid ethyl ester]	300 to 2000	> 100000
CC(CC(=O)Nc1sc2c(c1C#N)CCN(C(=O)OCCc1ccncc1)C2)c1cccnc1 (racemic) [Example 76, 3-Cyano-2-((RS)-3-pyridin-3-yl-butanoylamino)-4,7-dihydro-5H-thieno[2,3-c]pyridine-6-carboxylic acid 2-pyridin-4-yl-ethyl ester]	300 to 2000	≥ 40000
CC(CC(=O)Nc1sc2c(c1C#N)CCN(C(=O)OCCc1cccnc1)C2)c1ccccc1 (racemic) [Example 92, 3-Cyano-2-((RS)-3-phenyl-butanoylamino)-4,7-dihydro-5H-thieno[2,3-c]pyridine-6-carboxylic acid 2-pyridin-3-yl-ethyl ester]	≤ 300	> 100000
CC(CC(=O)Nc1sc2c(c1C#N)CCN(C(=O)OCCn1ccnc1)C2)c1ccccc1 (racemic) [Example 96, 3-Cyano-2-((RS)-3-phenyl-butanoylamino)-4,7-dihydro-5H-thieno[2,3-c]pyridine-6-carboxylic acid 2-imidazol-1-yl-ethyl ester]	≤ 300	> 100000
CCOC(=O)N1CCc2c(sc(NC(=O)CCc3ccccc3)c2C#N)C1 [Example 1, 3-Cyano-2-(3-phenyl-propanoylamino)-4,7-dihydro-5H-thieno[2,3-c]pyridine-6-carboxylic acid ethyl ester]	≤ 300	> 100000
CCOC(=O)N1CCc2c(sc(NC(=O)C3CC3c3ccccc3)c2C#N)C1 (centres unmarked) [Example 2, 3-Cyano-2-{[1-(2-phenyl-cyclopropyl)-methanoyl]-amino}-4,7-dihydro-5H-thieno[2,3-c]pyridine-6-carboxylic acid ethyl ester]	≤ 300	> 100000
CCOC(=O)N1CCc2c(sc(NC(=O)CCc3ccccc3C)c2C#N)C1 [Example 3, 3-Cyano-2-(3-o-tolyl-propanoylamino)-4,7-dihydro-5H-thieno[2,3-c]pyridine-6-carboxylic acid ethyl ester]	≤ 300	> 100000
CCOC(=O)N1CCc2c(sc(NC(=O)CCc3ccco3)c2C#N)C1 [Example 5, 3-Cyano-2-(3-furan-2-yl-propanoylamino)-4,7-dihydro-5H-thieno[2,3-c]pyridine-6-carboxylic acid ethyl ester]	≤ 300	> 100000
CCOC(=O)N1CCc2c(sc(NC(=O)C(C)Cc3ccccc3)c2C#N)C1 (centres unmarked) [Example 6, 3-Cyano-2-(2-methyl-3-phenyl-propanoylamino)-4,7-dihydro-5H-thieno[2,3-c]pyridine-6-carboxylic acid ethyl ester]	300 to 2000	> 100000
CCOC(=O)N1CCc2c(sc(NC(=O)CCc3cccs3)c2C#N)C1 [Example 7, 3-Cyano-2-(3-thiophen-2-yl-propanoylamino)-4,7-dihydro-5H-thieno[2,3-c]pyridine-6-carboxylic acid ethyl ester]	≤ 300	> 100000
CCOC(=O)N1CCc2c(sc(NC(=O)CCc3ccc(F)cc3)c2C#N)C1 [Example 8, 3-Cyano-2-(3-(4-fluoro-phenyl)-propanoylamino)-4,7-dihydro-5H-thieno[2,3-c]pyridine-6-carboxylic acid ethyl ester]	≤ 300	> 100000
CCOC(=O)N1CCc2c(sc(NC(=O)CCc3cccnc3)c2C#N)C1 [Example 9, 3-Cyano-2-(3-pyridin-3-yl-propanoylamino)-4,7-dihydro-5H-thieno[2,3-c]pyridine-6-carboxylic acid ethyl ester]	300 to 2000	> 100000
